In patent US12653796B2, “Compounds for use (in particular RIPA-56) in the prevention and/or treatment of non-alcoholic fatty liver disease” (SORBONNE UNIVERSITE, priority 2019, dated 2026):

Legend:
HFD-fed mice = assay: RIPA-56 feeding experiment in HFD-fed mice (NASH/steatosis model); assay type: in vivo, C57BL/6J mice
Procedure: FIG. 2. RIPA-56 treatment improves liver inflammation and fibrosis in HFD-fed mice. Six-week-old male C57BL/6J mice (n=5 per group) were fed either with normal control diet (NCD) or high-fat diet (HFD) supplemented or not with RIPA-56, according to prophylactic (“Pro”) or curative (“Cur”) designs for 16 weeks, the time necessary for an inflammatory and fibrotic response to develop. Differences between mice were determined by analysis of variance (ANOVA) with Bonferroni's multiple comparison. (A) Schematic representation of the experimental design; (B) Immunoblot analyses of whole liver protein extracts from mice fed NCD (1 to 3), HFD (4 to 6), HFD with RIPA-56 “Pro” (7 to 9), or HFD with RIPA-56 “Cur” (10 to 12) using antibodies against RIPK1, MLKL, RIPK3 and GAPDH as loading control; (C) Serum analysis of ALT; (D) Immuno-histochemical analysis of F4/80 on representative liver tissue sections from mice of each group; (E) Quantitative analysis of F4/80^+ foci using ImageJ software, 10 pictures per mouse were quantified; (F) F4/80, Mcp-1 and Tnf mRNA levels were assessed by RT-qPCR. (G) Representative Sirius Red staining of liver tissue section from mice of each group; (H) Quantification of light polarized Sirius Red pictures, 10 pictures per mouse were analyzed; (I) Collal mRNA levels were assessed by RT-qPCR. All data are expressed as mean±SEM; *p<0.05; **p<0.01; ***p<0.001. Scale bars indicate 50 μm.
FIG. 5. RIPA-56 treatment improves HFD-induced obesity and steatosis in mice. Six-week-old male C57BL/6J mice (n=5 per group) were fed either NCD or HFD supplemented or not with RIPA-56 for 16 weeks, as depicted in FIG. 2A, to analyze the metabolic status of the mice. (A) Body weight gain in mice of the 4 groups. No significant change in (B) food intake, (C) spontaneous locomotor activity, or (D) respiratory exchange ratio (RER) in mice Of the 4 groups; (E) Whole energy expenditure was evaluated during daylight and night in mice of the 4 groups; (F) Representative H&E staining of liver tissue sections from mice of the 4 groups. Scale bars, 50 μm; (G) Steatosis score of liver tissue sections was evaluated blinded; (H) Intrahepatic triglyceride contents were measured in two liver samples per mouse. Results are shown as mean±SEM; *p<0.05; **p<0.01; ***p<0.001.
FIG. 6. Fat and lean mass in prophylactically- and curatively-treated mice compared with control mice under HFD. (A) Body fat mass and relative body fat content, and (B) lean mass and relative lean content were evaluated in HFD-fed mice using MRI analysis. All results are shown as mean±SEM; n=5 per group; *p<0.05. Differences between groups were determined by one-way ANOVA with Bonferroni's multiple comparison.
Six-week-old male C57BL/6J mice (Charles River Laboratories, Ecully, France) were fed a high-fat diet (HFD—45 kcal % fat) or a normal chow diet (NCD) (Ssniff spezialdiäten GmbH, Soest, Germany) for 16 weeks (the time necessary for an inflammatory and fibrotic response to develop).
RIPA-56 (MedChemExpress, Stockholm, Sweden) was incorporated in diet by Ssniff spezialdiäten GmbH (Soest, Germany) according to a standardized protocol. Ssniff company is an approved manufacturer of laboratory animal diets and has the license to produce medicated feed for laboratory animals in accordance with Directive 2001/82/EC. Before the end of the feeding period, mice were single housed for one week in metabolic cages to measure food intake, respiratory exchange ratio (RER), energy expenditure and spontaneous locomotor activity using a LabMaster indirect calorimetry system (TSE Systems GmbH, Bad Homburg, Germany). Mice were sacrificed under anesthesia and blood was collected via intracardiac puncture procedure. Tissue samples were either directly snap-freezed in liquid nitrogen for molecular analysis or fixed in 4% PFA and embedded in paraffin for histological analysis. […]

L929 cells = assay: TNF-induced RIPK1-dependent cell death in L929 cells (MTT cell survival); assay type: cell-based; details: 20 μM, 2 h pre-treatment, TNF (50 ng/mL) 20 h
Procedure: FIG. 1. RIPA-56 prevents RIPK1-dependent cell death in L929 cells upon caspase inhibition and TNF stimulation. L929 cells were treated with RIPA-56 (20 μM), Nec-1 (20 μM) or vehicle for 2 h, prior to incubation with or without TNF (50 ng/mL), and analyzed for (A) morphology and (B) cell survival using MTT assay, after 20 h incubation with or without TNF; (C) Western blot analyses at different time points of incubation with TNF. Results are shown as mean±SEM; n.s., not significant; ****p<0.0001. Data are representative of three independent experiments.
L929 cells (LGC Standards, Molsheim, France), were cultured in Dulbecco's modified Eagle's medium (DMEM) (ThermoFisher, Massachusetts, USA) supplemented with 10% fetal bovine serum (Eurobio, Courtaboeuf, France), penicillin (100 IU/ml), streptomycin (0.1 mg/ml), and L-glutamine (0.03%) (ThermoFisher). […]
Cell viability was determined by using 3-(4,5-dimethylthiazol-2-yl)-[…] (MTT) colorimetric assay (ThermoFisher), which measures cell metabolic activity. […] Once MTT crystals were developed and controlled under light microscopy, they were dissolved in DMSO and quantified by measuring absorbance at 540 nm.

## CCC(C)(C)C(=O)N(O)Cc1ccccc1 [RIPA-56, N-Benzyl-N-hydroxy-2,2-dimethylbutanamide]
HFD-fed mice; HFD 16 weeks, 300 mg/kg in diet, both prophylactic and curative treatments
  MLKL and RIPK3 expression in liver (Western blot): repressed
HFD-fed mice; HFD-fed mice
  hepatic fat content by blinded histological analyses: marked decrease
  hepatic triglyceride content, reduction: 30-40%
HFD-fed mice; RIPA-56-treated HFD-fed mice
  increments in liver mRNA levels of Ccl20, Nlrp3 or Il-1b: abrogated or reduced
HFD-fed mice; Western blot and RT-qPCR
  expression of RIPK1 in liver: not impacted
HFD-fed mice; both curative and prophylactic settings
  steatosis: largely reduced
HFD-fed mice; both prophylactic and curative settings
  increase of serum alanine aminotransferase (ALT): abolished
HFD-fed mice; both prophylactic and curative treatments
  macrophage infiltration (hepatic F4/80 immunostaining): suppressed
HFD-fed mice; both regimens
  liver mRNA levels of F4/80 and Mcp-1, difference HFD vs NCD: disappeared
HFD-fed mice; both regimens, RT-qPCR
  mRNA levels of MLKL and RIPK3 in liver: decreased
HFD-fed mice; curative setting, start after 12 weeks of HFD
  body weight gain, fat- or lean-mass vs untreated HFD-fed mice: did not result in differences
HFD-fed mice; curative treatment
  Collagen-1a1 (Col1a1) mRNA levels in liver: reduced
  TNFα expression in liver: markedly reduced
  intensity of histologic features of NASH: largely attenuates
HFD-fed mice; prophylactic and curative treatments
  pericellular fibrosis (Sirius red staining): virtually disappeared
HFD-fed mice; prophylactic setting
  MLKL and RIPK3 expression in liver (Western blot): almost complete inhibition
  body weight gain, lower than untreated HFD-fed mice: ~12%
  fat and relative fat mass (MRI): significant decrease
  lean and relative lean body mass (MRI): trend towards increased
HFD-fed mice; prophylactic treatment
  Collagen-1a1 (Col1a1) mRNA levels in liver: no longer increased
  histologic features of NASH: prevents
  increase of TNFα expression in liver: not after RIPA-56 prophylactic treatment
HFD-fed mice; prophylactic treatment vs curative or no treatment
  energy expenditure (indirect calorimetry): increased
L929 cells
  RIPK1-dependent cell death: prevents
